The values below come from patent publication US12503471B2, “Triazatricycle compounds for the treatment of autoimmune disease” (Hoffmann-La Roche Inc., priority 2019, dated 2025).

The series can be described thus: Human microsomal stability assay. In kind it is in vitro ADME. The conditions noted are these: human liver microsomes, 1 μM test compound, 0.5 mg/mL protein, 37° C., pH 7.4. As for the experimental part:
Human Microsomal Stability Assay
Human liver microsomes (Cat.NO.: 452117, Corning, USA) were preincubated with test compound for 10 minutes at 37° C. in 100 mM potassium phosphate buffer, pH 7.4. The reactions were initiated by adding NADPH regenerating system. The final incubation mixtures contained 1 μM test compound, 0.5 mg/mL liver microsomal protein, 1 mM MgCl2, 1 mM NADP, 1 unit/mL isocitric dehydrogenase and 6 mM isocitric acid in 100 mM potassium phosphate buffer, pH 7.4. After incubation times of 0, 3, 6, 9, 15 and 30 minutes at 37° C., 300 μL of cold ACN (including internal standard) was added to 100 μL incubation mixture to terminate the reaction. Following precipitation and centrifugation, 100 uL supernatant will be taken out and added 300 uL water. The amount of compound remaining in the samples was determined by LC-MS/MS. Controls of no NADPH regenerating system at zero and 30 minutes were also prepared and analyzed. The results were categorized as: low (7.0 mL/min/kg), medium (7.0-16.2 mL/min/kg) and high (16.2-23.2 mL/min/kg).
(Liver microsomes are a subcellular fraction often used to study metabolism.)

Regarding `N#Cc1ccc(N2CCN3Cc4cc(N5CCNCC5)ncc4C3C2)c2cccnc12` (centres unmarked) [Example 1, 5-(11-Piperazin-1-yl-4,7,12-triazatricyclo[7.4.0.02,7]trideca-1(9),10,12-trien-4-yl)quinoline-8-carbonitrile], the “CL (h)” value is 6.2 mL/min/kg. Turning to `CC1(N)CCN(c2ccc3c(n2)CN2CCN(c4ccc(C#N)c5ncccc45)C[C@H]32)CC1` [Example 4B, 5-[(2S)-11-(4-amino-4-methyl-1-piperidyl)-4,7,10-triazatricyclo[7.4.0.02,7]trideca-1(9),10,12-trien-4-yl]quinoline-8-carbonitrile], the “CL (h)” value came out at 8.1 mL/min/kg.
